Key:
[1] = target: Tyrosine-protein kinase ABL1 (Homo sapiens, UniProt P00519)
[2] = target: Ribosomal protein S6 kinase alpha-6 (Homo sapiens, UniProt Q9UK32)
[3] = target: Tyrosine-protein kinase Yes (Homo sapiens, UniProt P07947)
[4] = target: Fibroblast growth factor receptor 1 (Homo sapiens, UniProt P11362)
[5] = target: Receptor-type tyrosine-protein kinase FLT3 (Homo sapiens, UniProt P36888, D835H)
[6] = target: Tyrosine-protein kinase Fgr (Homo sapiens, UniProt P09769)
[7] = target: Tyrosine-protein kinase HCK (Homo sapiens, UniProt P08631)
[8] = target: Vascular endothelial growth factor receptor 3 (Homo sapiens, UniProt P35916)
[9] = target: Mitogen-activated protein kinase 14 (Homo sapiens, UniProt Q16539)
Ephrin type-B receptor 3 = target: T1, Ephrin type-B receptor 3 (Homo sapiens, UniProt P54753)
T1 sequence (P54753 whole entry): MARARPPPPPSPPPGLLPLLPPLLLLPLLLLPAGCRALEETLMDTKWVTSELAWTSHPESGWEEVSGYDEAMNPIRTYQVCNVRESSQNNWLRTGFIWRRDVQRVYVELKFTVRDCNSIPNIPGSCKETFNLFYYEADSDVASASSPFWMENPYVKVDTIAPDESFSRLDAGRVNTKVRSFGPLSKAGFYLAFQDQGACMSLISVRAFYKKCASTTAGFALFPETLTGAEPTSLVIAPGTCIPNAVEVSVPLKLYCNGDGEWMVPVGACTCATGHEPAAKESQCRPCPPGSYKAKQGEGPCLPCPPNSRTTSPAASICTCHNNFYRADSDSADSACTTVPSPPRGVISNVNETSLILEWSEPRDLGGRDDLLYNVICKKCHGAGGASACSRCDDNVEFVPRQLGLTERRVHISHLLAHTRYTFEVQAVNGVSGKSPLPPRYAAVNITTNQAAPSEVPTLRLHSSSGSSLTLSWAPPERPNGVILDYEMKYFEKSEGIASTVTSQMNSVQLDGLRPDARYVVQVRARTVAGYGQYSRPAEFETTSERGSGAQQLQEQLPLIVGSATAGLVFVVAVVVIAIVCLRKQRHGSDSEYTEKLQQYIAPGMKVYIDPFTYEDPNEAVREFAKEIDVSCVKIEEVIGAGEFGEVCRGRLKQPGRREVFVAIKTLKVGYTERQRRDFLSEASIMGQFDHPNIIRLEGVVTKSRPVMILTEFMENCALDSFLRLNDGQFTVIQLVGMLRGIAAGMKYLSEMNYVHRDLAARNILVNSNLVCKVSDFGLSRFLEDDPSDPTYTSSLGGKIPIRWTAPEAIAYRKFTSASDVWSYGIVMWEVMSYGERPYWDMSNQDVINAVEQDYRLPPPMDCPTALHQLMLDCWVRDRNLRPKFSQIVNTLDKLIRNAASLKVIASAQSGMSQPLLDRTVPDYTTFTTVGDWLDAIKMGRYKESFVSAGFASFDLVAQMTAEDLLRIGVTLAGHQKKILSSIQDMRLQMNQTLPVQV

[10] = target: T2, Tyrosine-protein kinase ITK/TSK (Homo sapiens, UniProt Q08881)
T2 sequence (Q08881 whole entry): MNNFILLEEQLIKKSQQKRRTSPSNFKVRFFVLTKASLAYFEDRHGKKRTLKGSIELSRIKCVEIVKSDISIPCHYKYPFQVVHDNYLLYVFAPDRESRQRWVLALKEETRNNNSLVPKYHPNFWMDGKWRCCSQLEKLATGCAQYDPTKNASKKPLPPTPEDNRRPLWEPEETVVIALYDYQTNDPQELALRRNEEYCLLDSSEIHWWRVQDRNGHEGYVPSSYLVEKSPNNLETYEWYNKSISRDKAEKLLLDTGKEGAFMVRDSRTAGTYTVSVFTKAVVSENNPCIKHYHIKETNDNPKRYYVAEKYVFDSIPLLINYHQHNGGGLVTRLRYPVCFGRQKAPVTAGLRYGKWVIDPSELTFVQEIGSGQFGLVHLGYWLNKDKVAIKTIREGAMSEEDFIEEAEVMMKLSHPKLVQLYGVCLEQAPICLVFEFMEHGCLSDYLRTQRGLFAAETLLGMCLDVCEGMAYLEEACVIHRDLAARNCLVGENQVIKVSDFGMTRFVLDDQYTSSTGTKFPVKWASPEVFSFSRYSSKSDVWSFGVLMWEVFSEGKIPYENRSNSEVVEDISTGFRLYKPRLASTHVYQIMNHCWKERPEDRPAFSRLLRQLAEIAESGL

[11] = target: Epidermal growth factor receptor (Homo sapiens, UniProt P00533, G719S)
[12] = target: Cyclin-dependent kinase 9 (Homo sapiens, UniProt P50750)
[13] = target: Epidermal growth factor receptor (Homo sapiens, UniProt P00533, L747-S752DEL/P753S)
[14] = target: Epidermal growth factor receptor (Homo sapiens, UniProt P00533, L747-T751DEL)
[15] = target: Epidermal growth factor receptor (Homo sapiens, UniProt P00533, G719C)
[16] = target: Epidermal growth factor receptor (Homo sapiens, UniProt P00533, A750P/L747-E749DEL)
[17] = target: Epidermal growth factor receptor (Homo sapiens, UniProt P00533, L858R)
[18] = target: Epidermal growth factor receptor (Homo sapiens, UniProt P00533, S752-I759DEL)
[19] = target: Epidermal growth factor receptor (Homo sapiens, UniProt P00533, L861Q)
[20] = target: Epidermal growth factor receptor (Homo sapiens, UniProt P00533)
[21] = target: Epidermal growth factor receptor (Homo sapiens, UniProt P00533, E746-A750DEL)

Structure (SMILES)	Kd [1] [µM]	Kd [2] [µM]	Kd [3] [µM]	Kd [4] [µM]	Kd [5] [µM]	Kd [6] [µM]	Kd [7] [µM]	Kd [8] [µM]	Kd [9] [µM]	Kd (Ephrin type-B receptor 3) [µM]	Kd [10] [µM]	Kd [11] [µM]	Kd [12] [µM]	Kd [13] [µM]	Kd [14] [µM]	Kd [15] [µM]	Kd [16] [µM]	Kd [17] [µM]	Kd [18] [µM]	Kd [19] [µM]	also measured
COCC(=O)NC/C=C/c1ccc2ncnc(Nc3ccc(Oc4ccc(C)nc4)c(C)c3)c2c1 [CP-724714]	> 10	> 10	> 10	> 10	> 10	> 10	> 10	> 10	> 10	> 10	> 10	–	–	–	–	–	–	–	–	–	–
NC(=O)c1ccc(-c2nc(-c3ccc4c(c3)OCO4)c(-c3ccccn3)[nH]2)cc1 [SB-431542]	> 10	–	> 10	> 10	–	> 10	> 10	> 10	–	> 10	> 10	> 10	> 10	> 10	> 10	> 10	> 10	> 10	> 10	> 10	Kd [20]: > 10 µM; Kd [21]: > 10 µM
Nc1nc(Nc2ccc(S(N)(=O)=O)cc2)nn1C(=O)c1c(F)cccc1F [JNJ-7706621]	–	–	> 10	–	–	–	–	–	–	> 10	> 10	> 10	–	> 10	> 10	> 10	> 10	> 10	> 10	> 10	Kd [20]: > 10 µM; Kd [21]: > 10 µM
CCOc1cc2ncc(C#N)c(Nc3ccc(F)c(Cl)c3)c2cc1NC(=O)/C=C/CN(C)C [PELITINIB]	–	> 10	1.1	> 10	–	0.95	–	> 10	> 10	> 10	–	–	–	–	–	–	–	–	–	–	–
Oc1ccc(-c2nc(-c3ccncc3)c(-c3ccc(F)cc3)[nH]2)cc1 [SB-202190]	> 10	0.27	> 10	> 10	> 10	> 10	> 10	> 10	–	> 10	> 10	–	> 10	–	–	–	–	–	–	–	–
